One assay concerns the target T1, Histone deacetylase 8 (Homo sapiens, UniProt Q9BY41).
T1 sequence (Q9BY41 whole entry): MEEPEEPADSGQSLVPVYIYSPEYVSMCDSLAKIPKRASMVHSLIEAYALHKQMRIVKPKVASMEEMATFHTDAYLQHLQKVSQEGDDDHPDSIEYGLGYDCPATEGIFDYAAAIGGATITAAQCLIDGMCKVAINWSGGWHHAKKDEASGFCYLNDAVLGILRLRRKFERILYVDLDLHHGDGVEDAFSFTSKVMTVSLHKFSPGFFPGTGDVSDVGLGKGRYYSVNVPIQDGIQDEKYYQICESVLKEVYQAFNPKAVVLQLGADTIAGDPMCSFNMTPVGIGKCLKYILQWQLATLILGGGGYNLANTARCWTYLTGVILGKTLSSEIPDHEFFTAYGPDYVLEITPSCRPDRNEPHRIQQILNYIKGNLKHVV
Kind of assay: Inhibition of recombinant HDAC8 (unknown origin) incubated for 10 mins using Boc-Lys(acetyl)-AMC fluorogenic substrate by homogeneous fluorescence release assay.

The next assay concerns NCI-H661. The assay is described as follows: Antiproliferative activity against human NCI-H661 cells incubated for 72 hrs by MTT assay. Type of assay: functional, cell-based. Particulars: NCI-H661, 72 h.
The next assay deals with A549. Kind of assay: cells. To be noted: Homo sapiens, A549, 72 h.
A further assay concerns the target Histone deacetylase 2 (Homo sapiens, UniProt Q92769). Kind of assay: Inhibition of recombinant HDAC2 (unknown origin) incubated for 10 mins using Boc-Lys(acetyl)-AMC fluorogenic substrate by homogeneous fluorescence release assay.
A further assay has as its system U-937. The assay is described as follows: Antiproliferative activity against human U937 cells incubated for 72 hrs by MTT assay. Particulars: U-937, 72 h. The format is functional, cell-based. In general terms: Tetrazolium assays rely on reduction of a dye to a coloured formazan, in cell work by metabolically active cells.
Another assay concerns the target Histone deacetylase 1 (Homo sapiens, UniProt Q13547). The assay is described as follows: Inhibition of recombinant HDAC1 (unknown origin) incubated for 10 mins using Boc-Lys(acetyl)-AMC fluorogenic substrate by homogeneous fluorescence release assay.

Broadly, the IC50 is the concentration that gives 50% inhibition.

Sequence of Histone deacetylase 1 (Q13547 whole entry): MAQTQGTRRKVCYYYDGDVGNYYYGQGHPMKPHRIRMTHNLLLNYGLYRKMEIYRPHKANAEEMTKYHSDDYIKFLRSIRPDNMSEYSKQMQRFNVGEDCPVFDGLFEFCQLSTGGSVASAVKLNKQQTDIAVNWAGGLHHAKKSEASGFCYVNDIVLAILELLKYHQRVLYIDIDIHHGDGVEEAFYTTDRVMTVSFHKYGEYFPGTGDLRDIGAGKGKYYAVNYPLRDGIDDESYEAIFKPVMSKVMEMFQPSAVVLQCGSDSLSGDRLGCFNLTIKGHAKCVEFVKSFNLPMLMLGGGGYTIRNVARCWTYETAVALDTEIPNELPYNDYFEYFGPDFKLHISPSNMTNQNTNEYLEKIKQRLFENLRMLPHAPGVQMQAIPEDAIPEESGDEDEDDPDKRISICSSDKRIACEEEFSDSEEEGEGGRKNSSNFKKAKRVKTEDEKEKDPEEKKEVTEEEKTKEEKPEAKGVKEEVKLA
Sequence of Histone deacetylase 2 (Q92769 whole entry): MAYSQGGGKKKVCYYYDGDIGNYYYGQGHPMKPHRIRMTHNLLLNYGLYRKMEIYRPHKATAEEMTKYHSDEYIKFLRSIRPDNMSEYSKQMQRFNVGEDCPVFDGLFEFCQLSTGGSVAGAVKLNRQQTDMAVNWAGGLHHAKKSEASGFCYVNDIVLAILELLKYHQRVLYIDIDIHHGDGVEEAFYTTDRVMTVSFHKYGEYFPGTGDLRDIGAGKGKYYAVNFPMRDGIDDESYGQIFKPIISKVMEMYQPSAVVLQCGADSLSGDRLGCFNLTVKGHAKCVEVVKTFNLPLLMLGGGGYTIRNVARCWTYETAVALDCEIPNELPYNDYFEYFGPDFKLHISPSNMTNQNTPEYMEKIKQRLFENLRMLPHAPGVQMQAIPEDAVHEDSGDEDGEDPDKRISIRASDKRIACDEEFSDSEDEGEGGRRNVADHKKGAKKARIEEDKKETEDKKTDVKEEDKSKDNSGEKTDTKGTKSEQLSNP
Description for A549: Antiproliferative activity against human A549 cells incubated for 72 hrs by MTT assay

In the case of `O=C(CCCCCCc1nc(-c2ccccc2)no1)NO`, the IC50 came out at 2050 nM on Histone deacetylase 8; 17.3 µM in the assay with NCI-H661; 7.08 µM with A549; 1170 nM at Histone deacetylase 2; 1250 nM in the assay with U-937; 380 nM on Histone deacetylase 1.
`Nc1ccccc1NC(=O)c1ccc(CNC(=O)OCc2cccnc2)cc1` [ENTINOSTAT] yielded an IC50 with U-937 of 550 nM.
Consider `Cc1ccc(-c2noc(CCCCCCC(=O)NO)n2)cc1`, for which the IC50 worked out at 5390 nM at Histone deacetylase 8; 15.8 µM with NCI-H661; 5.81 µM in the assay with A549; 2780 nM on Histone deacetylase 2; 1360 nM in the assay on U-937; 490 nM on Histone deacetylase 1.
Turning to `Nc1ccccc1NC(=O)CCCCCCc1nc(-c2ccc(Cl)cc2)no1`, the IC50 was over 10000 nM at Histone deacetylase 8; 11.2 µM in the assay with NCI-H661; 13.8 µM with A549; 6290 nM at Histone deacetylase 2; 4360 nM with U-937; 1560 nM on Histone deacetylase 1.
For the compound `COc1ccc(-c2noc(CCCCCCC(=O)C(F)(F)F)n2)cc1`, the IC50 turned out to be 1860 nM at Histone deacetylase 8; 5.05 µM in the assay with NCI-H661; 35.9 µM in the assay with A549; 4530 nM on Histone deacetylase 2; 1170 nM in the assay on U-937; 9630 nM on Histone deacetylase 1.
On to `O=C(CCCCCCc1nc(-c2ccc(F)cc2)no1)C(F)(F)F`, for which the IC50 is 7650 nM at Histone deacetylase 8; 12.7 µM in the assay with NCI-H661; over 100 µM in the assay on A549; over 10000 nM at Histone deacetylase 2; 2350 nM in the assay on U-937; over 10000 nM at Histone deacetylase 1.
As for `O=C(CCCCCCc1nc(-c2ccc(C(F)(F)F)cc2)no1)C(F)(F)F`, the IC50 on Histone deacetylase 8 is 1030 nM; in the assay with NCI-H661, 6.39 µM; with A549 it was 28.8 µM; at Histone deacetylase 2, 2790 nM; with U-937 it was 1960 nM; at Histone deacetylase 1, 8250 nM.
On to `O=C(CCCCCCc1nc(-c2cccs2)no1)NO`, for which the IC50 at Histone deacetylase 8 amounted to 1920 nM; in the assay with NCI-H661, 9.46 µM; in the assay with A549, 4.37 µM; at Histone deacetylase 2 it was 510 nM; in the assay on U-937 it was 320 nM; on Histone deacetylase 1, 120 nM.
For `Nc1ccccc1NC(=O)CCCCCCc1nc(-c2cccc([N+](=O)[O-])c2)no1`, the IC50 was over 10000 nM on Histone deacetylase 8; 7.29 µM in the assay on NCI-H661; 20.2 µM with A549; 5190 nM at Histone deacetylase 2; 2150 nM in the assay with U-937; 820 nM on Histone deacetylase 1.
In the case of `O=C(CCCCCCc1nc(-c2cccc([N+](=O)[O-])c2)no1)NO`, the IC50 is 2380 nM on Histone deacetylase 8; 16.1 µM in the assay with NCI-H661; 10.8 µM with A549; 1560 nM on Histone deacetylase 2; 1160 nM with U-937; 350 nM at Histone deacetylase 1.
For the compound `O=C(CCCCCCc1nc(-c2ccc(Cl)cc2)no1)C(F)(F)F`, the IC50 at Histone deacetylase 8 is 2080 nM; in the assay on NCI-H661, 11.9 µM; in the assay on A549 it was 18.5 µM; on Histone deacetylase 2, 8560 nM; in the assay with U-937, 4670 nM; on Histone deacetylase 1, over 10000 nM.
As to `O=C(CCCCCCc1nc(-c2ccccc2)no1)C(F)(F)F`, the IC50 came out at 760 nM on Histone deacetylase 8; 0.52 µM in the assay with NCI-H661; 7.68 µM in the assay on A549; 1050 nM at Histone deacetylase 2; 410 nM in the assay on U-937; 5320 nM at Histone deacetylase 1.
With `Nc1ccccc1NC(=O)CCCCCCc1nc(-c2ccccc2)no1`, the IC50 was over 10000 nM on Histone deacetylase 8; 0.96 µM in the assay on NCI-H661; 23.9 µM in the assay with A549; 730 nM at Histone deacetylase 2; 730 nM in the assay on U-937; 210 nM at Histone deacetylase 1.
Turning to `Cc1ccc(-c2noc(CCCCCCC(=O)Nc3ccccc3N)n2)cc1`, the IC50 at Histone deacetylase 8 came to 8390 nM; in the assay on NCI-H661, 0.41 µM; in the assay on A549 it was 9.17 µM; at Histone deacetylase 2, 680 nM; in the assay on U-937, 460 nM; on Histone deacetylase 1, 140 nM.
For the compound `COc1ccc(-c2noc(CCCCCCC(=O)NO)n2)cc1`, the IC50 on Histone deacetylase 8 is over 10000 nM; in the assay on NCI-H661, 20.4 µM; in the assay with A549 it was 13.5 µM; on Histone deacetylase 2, over 10000 nM; in the assay with U-937, 3650 nM; at Histone deacetylase 1, 2180 nM.
For `O=C(CCCCCCc1nc(-c2ccccc2Cl)no1)C(F)(F)F`, the IC50 is 710 nM at Histone deacetylase 8; 1.25 µM in the assay on NCI-H661; 6.16 µM in the assay on A549; 1580 nM at Histone deacetylase 2; 920 nM in the assay on U-937; 7650 nM at Histone deacetylase 1.
In the case of `O=C(CCCCCCc1nc(-c2ccc([N+](=O)[O-])cc2)no1)C(F)(F)F`, the IC50 at Histone deacetylase 8 was 3170 nM; with NCI-H661, 17.5 µM; with A549, over 100 µM; at Histone deacetylase 2, 8150 nM; in the assay with U-937, 3680 nM; on Histone deacetylase 1, over 10000 nM.
In the case of `Nc1ccccc1NC(=O)CCCCCCc1nc(-c2ccc([N+](=O)[O-])cc2)no1`, the IC50 is over 10000 nM at Histone deacetylase 8; over 100 µM in the assay on NCI-H661; over 100 µM in the assay with A549; over 10000 nM at Histone deacetylase 2; 10200 nM with U-937; 8670 nM on Histone deacetylase 1.
Regarding `O=C(CCCCCCc1nc(-c2ccccc2Cl)no1)NO`, the IC50 at Histone deacetylase 8 was 3650 nM; in the assay with NCI-H661 it was 10.3 µM; with A549, 8.87 µM; at Histone deacetylase 2, 1250 nM; in the assay on U-937 it was 750 nM; at Histone deacetylase 1, 190 nM.
As to `O=C(CCCCCCc1nc(-c2cccnc2)no1)NO`, the IC50 at Histone deacetylase 8 turned out to be 1830 nM; in the assay on NCI-H661, 6.02 µM; in the assay on A549 it was 5.34 µM; on Histone deacetylase 2, 390 nM; with U-937, 350 nM; at Histone deacetylase 1, 80 nM.
For `O=C(CCCCCCc1nc(-c2ccc([N+](=O)[O-])cc2)no1)NO`, the IC50 at Histone deacetylase 8 is 2560 nM; in the assay on NCI-H661, 3.09 µM; in the assay with A549, 5.31 µM; at Histone deacetylase 2 it was 230 nM; in the assay on U-937, 290 nM; on Histone deacetylase 1, 70 nM.
For the compound `O=C(CCCCCCc1nc(-c2cccc([N+](=O)[O-])c2)no1)C(F)(F)F`, the half-inhibitory concentration (IC50) amounted to 830 nM on Histone deacetylase 8; 6.43 µM in the assay with NCI-H661; 9.58 µM with A549; 920 nM on Histone deacetylase 2; 560 nM with U-937; 3980 nM on Histone deacetylase 1.
Turning to `O=C(CCCCCCc1nc(-c2ccc(F)cc2)no1)NO`, the IC50 at Histone deacetylase 8 is 8760 nM; in the assay with NCI-H661 it was 19.4 µM; in the assay on A549 it was 5.77 µM; at Histone deacetylase 2, 6260 nM; in the assay on U-937, 1930 nM; on Histone deacetylase 1, 1150 nM.
For the compound `Nc1ccccc1NC(=O)CCCCCCc1nc(-c2ccc(F)cc2)no1`, the IC50 at Histone deacetylase 8 was over 10000 nM; in the assay on NCI-H661, 9.53 µM; in the assay with A549, 31.2 µM; at Histone deacetylase 2 it was 2570 nM; in the assay on U-937, 3080 nM; on Histone deacetylase 1 it was 880 nM.
Regarding `Nc1ccccc1NC(=O)CCCCCCc1nc(-c2cccs2)no1`, the IC50 was over 10000 nM on Histone deacetylase 8; 6.18 µM with NCI-H661; 28.7 µM in the assay on A549; 2870 nM at Histone deacetylase 2; 1590 nM in the assay with U-937; 760 nM on Histone deacetylase 1.
For `Nc1ccccc1NC(=O)CCCCCCc1nc(-c2ccccc2Cl)no1`, the IC50 at Histone deacetylase 8 is over 10000 nM; with NCI-H661 it was 8.31 µM; with A549, over 100 µM; at Histone deacetylase 2 it was over 10000 nM; with U-937 it was 6910 nM; on Histone deacetylase 1, 4130 nM.

The values are drawn from ChEMBL document CHEMBL3585316, “Discovery, bioactivity and docking simulation of Vorinostat analogues containing 1,2,4-oxadiazole moiety as potent histone deacetylase inhibitors and antitumor agents” (Bioorg Med Chem, 2015).
